One series has as its system Candida krusei. Kind of series: microbe, parasite or virus in culture. The series is classed as cell-based. The conditions noted are these: 48 h.
Series [1] deals with Trichophyton mentagrophytes. Kind of series: microbe, parasite or virus in culture. The format is cell-based. The conditions noted are these: 48 h.
Procedure: (§1) Antimicrobial activity of the peptides was evaluated against Escherichia coli JCM 5491, Pseudomonas aeruginosa JCM 6119, Staphylococcus aureus JCM2874, Salmonella Typhimurium JCM1652, Acinetobacter baumannii JCM6841, Bacteroides fragilis JCM11019, Fusobacterium nucleatum JCM11025, Penicillium glabrum JCM22534, Fusarium solani JCM11383, Alternaria alternata JCM5800 (RIKEN, A research institution for basic and applied science in Japan), Micrococcus luteus NBRC13867, Bacillus subtilis NBRC3134, Propionibacterium acnes NBRC107605, Trichophyton mentagrophytes NBRC6124, Trichophyton rubrum NBRC9185, Candida krusei NBRC1395 (National Institute of Technology and Evaluation, Tokyo, Japan), Salmonella Enteritidis IID604 (The Institute of Medical Science, The University of Tokyo, Tokyo, Japan). Additionally, the clinical isolates (Drug-sensitive/resistant Pseudomonas aeruginosa and Staphylococcus aureus, Osaka University Hospital) and multidrug-resistant Acinetobacter baumannii (ATCC BAA-1605) were used. […] Serial two-fold dilutions of peptide were added to 0.1 ml of medium containing each type of bacteria and fungi at concentrations of 0.4×10^4 – 5×10^4 CFU/ml. The plates were incubated at 37°C with vigorous shaking for 24 or 48 hours. The MICs were determined as the lowest concentrations of peptide that inhibited visible bacterial growth.
A further series concerns Salmonella Enteritidis. Briefly: microbe, parasite or virus in culture. The series is classed as cell-based. The following applies: 48 h.
Series [2] relates to Multidrug-resistant Acinetobacter baumannii. The format is cell-based. The conditions noted are these: 48 h.
Procedure: (§2) Antimicrobial activity of the peptides was evaluated against Escherichia coli JCM 5491, Pseudomonas aeruginosa JCM 6119, Staphylococcus aureus JCM2874, Salmonella Typhimurium JCM1652, Acinetobacter baumannii JCM6841, Bacteroides fragilis JCM11019, Fusobacterium nucleatum JCM11025, Penicillium glabrum JCM22534, Fusarium solani JCM11383, Alternaria alternata JCM5800 (RIKEN, A research institution for basic and applied science in Japan), Micrococcus luteus NBRC13867, Bacillus subtilis NBRC3134, Propionibacterium acnes NBRC107605, Trichophyton mentagrophytes NBRC6124, Trichophyton rubrum NBRC9185, Candida krusei NBRC1395 (National Institute of Technology and Evaluation, Tokyo, Japan), Salmonella Enteritidis IID604 (The Institute of Medical Science, The University of Tokyo, Tokyo, Japan). […] Serial two-fold dilutions of peptide were added to 0.1 ml of medium containing each type of bacteria and fungi at concentrations of 0.4×10^4 – 5×10^4 CFU/ml. The plates were incubated at 37°C with vigorous shaking for 24 or 48 hours. The MICs were determined as the lowest concentrations of peptide that inhibited visible bacterial growth.
The subject of the next series is Fusarium solani. Briefly: microbe, parasite or virus in culture. The format is cell-based. The conditions noted are these: 48 h.
In the next series the test system is Bacillus subtilis. Kind of series: microbe, parasite or virus in culture. The format is cell-based. The conditions noted are these: 48 h.
A further series deals with Bacteroides fragilis. Kind of series: microbe, parasite or virus in culture. The following applies: 48 h. The format is cell-based.
For series [3], the system named is Carbapenem-resistant Pseudomonas aeruginosa. The series is classed as cell-based. The following applies: 48 h.
Procedure: as §2
A further series has as its system S. aureus (ATCC29213). Kind of series: microbe, parasite or virus in culture. The series is classed as cell-based, Staphylococcus aureus. The conditions noted are these: ATCC29213, 48 h.
For the next series, the system named is Acinetobacter baumannii. The format is cell-based. The conditions noted are these: 48 h.
A further series concerns Micrococcus luteus. Briefly: microbe, parasite or virus in culture. The series is classed as cell-based. The following applies: 48 h.
For the next series, the system named is Alternaria alternata. Briefly: microbe, parasite or virus in culture. The series is classed as cell-based. The conditions noted are these: 48 h.
For the next series, the system named is Salmonella Typhimurium. Briefly: microbe, parasite or virus in culture. The following applies: murium, 48 h. The format is cell-based.
For series [4] the following is noted: peptide 500 μg/ml, 37°C, 3 or 10 minutes, acetonitrile/0.1% trifluoroacetate precipitation, HPLC, N = 2 (Fig. 1E). On the procedure:
In vitro stability studies were performed by incubating the peptide with rat or human serum. Human sera (Pool of donors, 5 men and 5 women) were commercially purchased from KAC (Kyoto, Japan), which has been permitted only for experiment. We don't use the human biological specimens without the documented informed consent. Rat sera were collected from rats. The peptide (500 μg/ml) was added to serum (300 μL) and incubated at 37°C. A part of samples (90 μL) were taken, and the proteins were precipitated with acetonitrile containing 0.1% trifluoroacetate (200 μL). The precipitate was separated by centrifugation. The supernatants were analyzed by high-performance liquid chromatography (HPLC).

A further series relates to Trichophyton rubrum. Kind of series: microbe, parasite or virus in culture. The format is cell-based. The following applies: 48 h.
The subject of another series is E. coli (ATCC25922). Kind of series: microbe, parasite or virus in culture. The conditions noted are these: ATCC25922, 48 h. The series is classed as cell-based, Escherichia coli.

This note sets out measurements from article PMC3968008 (PLoS ONE, 2014).

Values after ≈ are worked out from the molar mass of the structure shown. Square brackets hold non-standard residues; d marks the D form. Peptide text beside a SMILES is read from it.

Procedure for Alternaria alternata: as §1
Procedure for Bacillus subtilis: as §2
Procedure for Bacteroides fragilis: as §1
Procedure for Candida krusei: as §1
Procedure for E. coli (ATCC25922): as §1
Procedure for Fusarium solani: as §1
Procedure for Micrococcus luteus: as §1
Procedure for S. aureus (ATCC29213): as §1
Procedure for Salmonella Enteritidis: as §2
Procedure for Salmonella Typhimurium: as §2
Procedure for Trichophyton rubrum: as §1

For `CC[C@H](C)[C@H](NC(=O)[C@H](CC(C)C)NC(=O)[C@H](CCCCN)NC(=O)[C@H](CC(C)C)NC(=O)[C@@H](N)CCSC)C(=O)N[C@@H](Cc1ccccc1)C(=O)N[C@@H](CC(C)C)C(=O)N[C@@H](Cc1c[nH]cn1)C(=O)N[C@@H](CCCNC(=N)N)C(=O)N[C@@H](CC(C)C)C(=O)N[C@@H](CCCCN)C(=O)N[C@@H](CCCNC(=N)N)C(=O)N[C@@H](CCSC)C(=O)N[C@@H](CCCNC(=N)N)C(=O)N[C@@H](CCCCN)C(=O)N[C@@H](CCCNC(=N)N)C(=O)N[C@@H](CC(C)C)C(=O)N[C@H](CCCCN)C(=O)N[C@@H](CCCNC(=N)N)C(=O)N[C@@H](CCCCN)C(=O)O` [SR-0379] (H-MLKLIFLHRLKRMRKRL[dK]RK-OH), the “MIC Candida krusei” value in the series with Candida krusei is 32 µg/mL (≈ 12 µM). Moreover, the “MIC Trichophyton mentagrophytes” value in [1] came to 32 µg/mL (≈ 12 µM). Moreover, in the series with Salmonella Enteritidis, the “MIC Salmonella Enteritidis” value is 8 µg/mL (≈ 3 µM). In addition, the “MIC Acinetobacter baumannii, Multidrug-resistant” value in [2] came out at 16 µg/mL (≈ 6 µM). Moreover, the “MIC Fusarium solani” value against Fusarium solani is 8 µg/mL (≈ 3 µM). Further, in the series on Bacillus subtilis, the “MIC Bacillus subtilis” value amounted to 2 µg/mL (≈ 0.75 µM). For the same compound, in the series with Bacteroides fragilis, the “MIC Bacteroides fragilis” value came out at 32 µg/mL (≈ 12 µM). Also, the “MIC Pseudomonas aeruginosa, Carbapenem-resistant” value in series [3] fell in the range of 16 to 64 µg/mL. Also, the “MIC S. aureus (ATCC29213)” value against S. aureus (ATCC29213) was 16 µg/mL (≈ 6 µM). Also, the “MIC Acinetobacter baumannii” value against Acinetobacter baumannii worked out at 8 µg/mL (≈ 3 µM). Further, the “MIC Micrococcus luteus” value with Micrococcus luteus was found to be 2 µg/mL (≈ 0.75 µM). Besides, the “MIC Alternaria alternata” value against Alternaria alternata turned out to be 32 µg/mL (≈ 12 µM). In addition, the “MIC Salmonella Typhimurium” value against Salmonella Typhimurium stood at 8 µg/mL (≈ 3 µM). Also, the “Stability in human serum” value in series [4] (human serum (pool of 5 men and 5 women) 300 μL) is listed as “significantly improved”. Besides, in series [4] (rat serum 300 μL), the “Stability in rat serum” value was “significantly improved”. Also, in the series with Trichophyton rubrum, the “MIC Trichophyton rubrum” value turned out to be 64 µg/mL (≈ 24 µM). For the same compound, the “MIC E. coli (ATCC25922)” value against E. coli (ATCC25922) was determined as 8 µg/mL (≈ 3 µM).
